{"source": "patent US20050065218A1", "about": "“Utilization of alverine, alone or in combination with tricyclic antidepressant or a specific serotonin reuptake inhibitor for the treatment of depression” (priority 2003, published 2005)", "assay_type_in_all_cases": "in vivo", "key": {"Swiss mice CD1 [1]": {"test_system": "Swiss mice CD1", "assay": "forced swim test, Alverine and fluoxetine administered intraperitoneally to mice (Example 3, second test)", "conditions": "for immobility time, individual animals / immobility time, Mean: 30 minutes prior to the test; for immobility time, Mean: n = 10", "protocol": "These are Swiss mice CD1 (CD-1® (ICR) IGS (Charles River France) weighing between 25 and 35 g. […] They are placed 15 to 20 per cage, over an acclimatising period of at least 5 days prior to the tests. They are identified by marking on the fur. […] The mice were divided into two test comprising six groups of 10 mice each. For the second test: The first group is the control group: it is treated only by excipient. […] The doses are expressed in terms of free active substances. The test substances are prepared extemporaneously in a saline solution. The treatments are co-administered 30 minutes prior to the test in a coded and random order intraperitoneally with a volume of 10 ml/kg (5 ml/kg for each administration). […] The total duration of immobility is measured over the last four minutes of the test, six minutes in total. A mouse is deemed immobile when it ceases struggling and floats in the water without movements superfluous to those allowing it to keep its head above water. A drop in immobility time is the reflection of an antidepressant effect. The forced swim test is a pre-clinical behavioural model, which has good predictive validity and is widely employed for determining the efficacy of antidepressant medications (Borsini and Meli, 1988). The results are expressed in total duration of immobility in seconds and as a percentage of variation of the total duration of immobility calculated from the average value of the control group. The statistical significance between two treated groups is determined by using a Student test (P<0.05) The data are analysed using <<SigmaStat>> software."}, "Swiss mice CD1 [2]": {"test_system": "Swiss mice CD1", "assay": "forced swim test, Alverine administered orally to mice (Example 2)"}, "Swiss mice CD1 [3]": {"test_system": "Swiss mice CD1", "assay": "forced swim test, Alverine and imipramine administered intraperitoneally to mice (Example 3, first test)", "parameters": "key to Dunnett test vs control group: * indicates a significant difference for p < 0.05 (Dunnett test); ns indicates an insignificant result", "conditions": "for immobility time, individual animals / immobility time, Mean: 30 minutes prior to the test; for immobility time, Mean: n = 10", "protocol": "These are Swiss mice CD1 (CD-1® (ICR) IGS (Charles River France) weighing between 25 and 35 g. […] They are placed 15 to 20 per cage, over an acclimatising period of at least 5 days prior to the tests. They are identified by marking on the fur. […] The mice were divided into two test comprising six groups of 10 mice each. For the first test: The first group is the control group: it is treated only by excipient. The second group is treated with imipramine at a dose of 3 mg/kg The third group is treated with Alverine at a dose of 3 mg/kg The fourth group is treated with Alverine at a dose of 3 mg/kg and imipramine at a dose of 3 mg/kg The fifth group is treated with imipramine at a dose of 10 mg/kg […] The doses are expressed in terms of free active substances. The test substances are prepared extemporaneously in a saline solution. The treatments are co-administered 30 minutes prior to the test in a coded and random order intraperitoneally with a volume of 10 ml/kg (5 ml/kg for each administration). Thirty minutes following administration the six groups of mice are subjected to the forced swim test, in a vertical Plexiglas cylinder (height 24 cm, diameter 9 cm) containing water (height 6 cm, temperature 18-22° C.). The total duration of immobility is measured over the last four minutes of the test, six minutes in total. A mouse is deemed immobile when it ceases struggling and floats in the water without movements superfluous to those allowing it to keep its head above water. A drop in immobility time is the reflection of an antidepressant effect. The forced swim test is a pre-clinical behavioural model, which has good predictive validity and is widely employed for determining the efficacy of antidepressant medications (Borsini and Meli, 1988). The results are expressed in total duration of immobility in seconds and as a percentage of variation of the total duration of immobility calculated from the average value of the control group. The statistical significance between two treated groups is determined by using a Student test (P<0.05) The data are analysed using <<SigmaStat>> software."}, "Swiss mice CD1 [4]": {"test_system": "Swiss mice CD1", "assay": "forced swim test, Alverine administered intraperitoneally to mice (Example 1)", "conditions": "Imipramine 10 mg/kg intraperitoneally", "protocol": "To establish the advantages according to the present invention a study was carried out to 50 mice. They were divided into 5 groups of 10 mice each. These are Swiss mice CD1 (CD-1® (ICR) IGS (Charles River France) weighing between 25 and 35 g.\nThey were placed in a room at a temperature of between 19.5 and 24.5° C. and a relative humidity of 45 to 65% with a light/dark cycle of 12 h, ad libitum access to filtered water and pellets of laboratory-standard food.\nThey are placed 15 to 20 per cage, over an acclimatising period of at least 5 days prior to the tests. They are identified by marking on the fur.\nThe substance to be tested is Alverine citrate (Sigma, in the form of dry powder, with a salt/base ratio of 1.68) comparatively to imipramine chlorhydrate (Sigma, in the form of dry powder, with a salt/base ratio of 1.13).\nThe first group is the control group: it is treated only by excipient.\nThe second group is treated with Alverine at a dose of 3 mg/kg\nThe third group is treated with Alverine at a dose of 10 mg/kg\nThe fourth group is treated with Alverine at a dose of 30 mg/kg\nThe fifth group is treated with imipramine (tricyclic antidepressant) at a dose of 10 mg/kg\nThe doses are expressed in terms of free active substances. The substances are prepared extemporaneously in the excipient. The treatments are administered 30 minutes prior to the test in a coded and random order intraperitoneally with a volume of 10 ml/kg.\nThirty minutes following administration the five groups of mice are subjected to the forced swim test, in a vertical Plexiglas cylinder (height 24 cm, diameter 9 cm) containing water (height 6 cm, temperature 18-22° C.). The total duration of immobility is measured over the last four minutes of the test, six minutes in total. A mouse is deemed immobile when it ceases struggling and floats in the water without movements superfluous to those allowing it to keep its head above water. A drop in immobility time is the reflection of an antidepressant effect.\nThe forced swim test is a pre-clinical behavioural model, which has good predictive validity and is widely employed for determining the efficacy of antidepressant medications (Borsini and Meli, 1988).\nThe results are expressed in total duration of immobility in seconds and as a percentage of variation of the total duration of immobility calculated from the average value of the control group.\nThe statistical significance between the treated groups and the control group is determined by a Dunnett test using the residual variation according to analysis of the variance (P<0.05). The data are analysed using <<SigmaStat>> software."}, "[5]": {"conditions": "Fluoxetine 3 mg/kg intraperitoneally"}, "[6]": {"conditions": "Fluoxetine 10 mg/kg intraperitoneally"}, "[7]": {"conditions": "tested alone at 3 mg/kg intraperitoneally"}, "[8]": {"conditions": "Imipramine 3 mg/kg intraperitoneally"}, "[9]": {"conditions": "Imipramine 10 mg/kg intraperitoneally"}}, "note": "“And” between values parts separate entries of the source, which are not always exact repeats. Equal entries are not always repeated.", "data": [{"smiles": "CNCCC(Oc1ccc(C(F)(F)F)cc1)c1ccccc1", "note": "(stereo not drawn) [Fluoxetine, fluoxetine]", "values": [{"measurement": "% of variation of immobility time vs control group", "setting": "Swiss mice CD1 [1]; [5]", "result": "−30", "unit": "%"}, {"measurement": "Dunnett test vs control group", "setting": "Swiss mice CD1 [1]; [5]", "result": "* (* indicates a significant difference for p < 0.05 (Dunnett test))"}, {"measurement": "immobility time, individual animals", "setting": "Swiss mice CD1 [1]; [5]", "result": "149 s and 18 s and 101 s and 99 s and 10 s and 100 s and 103 s"}, {"measurement": "immobility time, Mean", "setting": "Swiss mice CD1 [1]; [5]", "result": 105.6, "unit": "s"}, {"measurement": "% of variation of immobility time vs control group", "setting": "Swiss mice CD1 [1]; [6]", "result": "−45", "unit": "%"}, {"measurement": "Dunnett test vs control group", "setting": "Swiss mice CD1 [1]; [6]", "result": "* (* indicates a significant difference for p < 0.05 (Dunnett test))"}, {"measurement": "immobility time, individual animals", "setting": "Swiss mice CD1 [1]; [6]", "result": "76 sec (2×) and 83 sec and 105 sec and 90 sec and 28 sec and 88 sec and 34 sec"}, {"measurement": "immobility time, Mean", "setting": "Swiss mice CD1 [1]; [6]", "result": 82.7, "unit": "s"}, {"measurement": "decrease in the duration of immobilisation as compared to the control group (in words)", "setting": "Swiss mice CD1 [1]; [7]", "result": "statistically significant decrease"}]}, {"smiles": "CN(C)CCCN1c2ccccc2CCc2ccccc21", "note": "[Imipramine, imipramine]", "values": [{"measurement": "% of variation of immobility time vs control group", "setting": "Swiss mice CD1 [2]; Imipramine 30 mg/kg orally", "result": "−58", "unit": "%"}, {"measurement": "Dunnett test vs control group", "setting": "Swiss mice CD1 [2]; Imipramine 30 mg/kg orally", "result": "* (* indicates a significant difference for p < 0.05 (Dunnett test))"}, {"measurement": "immobility time compared with mice treated with Alverine", "setting": "Swiss mice CD1 [2]; Imipramine 30 mg/kg orally vs Alverine 100 mg/kg orally", "result": "comparable to the mice of the fourth group treated at 100 mg/kg of Alverine"}, {"measurement": "immobility time, individual animals", "setting": "Swiss mice CD1 [2]; Imipramine 30 mg/kg orally, 60 minutes prior to the test", "result": "52 s and 64 s and 55 s and 5 s and 75 s and 67 s and 70 s and 89 s and 45 s and 96 s"}, {"measurement": "immobility time, Mean", "setting": "Swiss mice CD1 [2]; Imipramine 30 mg/kg orally, 60 minutes prior to the test, N = 10", "result": 61.9, "unit": "s"}, {"measurement": "% of variation of immobility time vs control group", "setting": "Swiss mice CD1 [3]; [8]", "result": "−24", "unit": "%"}, {"measurement": "Dunnett test vs control group", "setting": "Swiss mice CD1 [3]; [8]", "result": "ns"}, {"measurement": "immobility time, individual animals", "setting": "Swiss mice CD1 [3]; [8]", "result": "121 sec (2×) and 70 sec and 74 sec and 122 sec and 93 sec and 94 sec and 141 sec and 133 sec and 123 sec"}, {"measurement": "immobility time, Mean", "setting": "Swiss mice CD1 [3]; [8]", "result": 109.2, "unit": "s"}, {"measurement": "% of variation of immobility time vs control group", "setting": "Swiss mice CD1 [3]; [9]", "result": "−67", "unit": "%"}, {"measurement": "Dunnett test vs control group", "setting": "Swiss mice CD1 [3]; [9]", "result": "* (* indicates a significant difference for p < 0.05 (Dunnett test))"}, {"measurement": "immobility time, individual animals", "setting": "Swiss mice CD1 [3]; [9]", "result": "0 s and 62 s and 38 s and 54 s and 45 s and 92 s and 26 s and 77 s and 80 s and 4 s"}, {"measurement": "immobility time, Mean", "setting": "Swiss mice CD1 [3]; [9]", "result": 47.8, "unit": "s"}, {"measurement": "decrease in the duration of immobilisation as compared to the control group (in words)", "setting": "Swiss mice CD1 [3]; [7]", "result": "statistically insignificant decrease"}, {"measurement": "% of variation of immobility time vs control group", "setting": "Swiss mice CD1 [4]", "result": "−62", "unit": "%"}, {"measurement": "Dunnett test vs control group", "setting": "Swiss mice CD1 [4]", "result": "* (* indicates a significant difference for p < 0.05 (Dunnett test))"}, {"measurement": "immobility time, individual animals", "setting": "Swiss mice CD1 [4]; 30 minutes prior to the test", "result": "67 s and 70 s and 1 s and 89 s and 3 s and 9 s and 38 s and 99 s and 53 s and 65 s"}, {"measurement": "immobility time, Mean", "setting": "Swiss mice CD1 [4]; 30 minutes prior to the test, N = 10", "result": 49.4, "unit": "s"}]}]}
